Results published in ChEMBL document CHEMBL2401692, “Synthesis, structure-activity relationships, and in vivo efficacy of the novel potent and selective anaplastic lymphoma kinase (ALK) inhibitor 5-chloro-N2-(2-isopropoxy-5-methyl-4-(piperidin-4-yl)phenyl)-N4-(2-(isopropylsulfonyl)phenyl)pyrimidine-2,4-diamine (LDK378) currently in phase 1 and phase …” (J Med Chem, 2013).
Converted amounts (≈) assume the structure as drawn.

How the values were obtained:
[1] = Oral bioavailability in Beagle dog at 20 mg/kg; type: ADME, organism-based, Canis lupus familiaris; settings: in vivo
[2] = biological target: Tyrosine-protein kinase JAK3 (Homo sapiens, UniProt P52333); test: Inhibition of JAK3 (unknown origin) after 60 mins
[3] = Cmax in BALB/c mouse at 20 mg/kg, po; type: ADME, organism-based; set-up: dose 20 mg/kg, route oral; settings: in vivo
[4] = Drug uptake in tumor of Rowett nude rat xenografted with human KARPAS299 cells at 50 mg/kg, po; type: ADME, organism-based, Neoplasm, KARPAS-299; set-up: dose 50 mg/kg, route oral; settings: in vivo
[5] = Plasma clearance in Sprague-Dawley rat at 3 mg/kg, iv; type: ADME, organism-based; set-up: dose 3 mg/kg, route intravenous
[6] = biological target: T1, Tyrosine-protein kinase JAK2 (Homo sapiens, UniProt O60674); test: Inhibition of TEL-fused JAK2 (unknown origin) by cell-based assay
Target sequence in this assay (O60674 whole entry, looked up, the tested form may be a part): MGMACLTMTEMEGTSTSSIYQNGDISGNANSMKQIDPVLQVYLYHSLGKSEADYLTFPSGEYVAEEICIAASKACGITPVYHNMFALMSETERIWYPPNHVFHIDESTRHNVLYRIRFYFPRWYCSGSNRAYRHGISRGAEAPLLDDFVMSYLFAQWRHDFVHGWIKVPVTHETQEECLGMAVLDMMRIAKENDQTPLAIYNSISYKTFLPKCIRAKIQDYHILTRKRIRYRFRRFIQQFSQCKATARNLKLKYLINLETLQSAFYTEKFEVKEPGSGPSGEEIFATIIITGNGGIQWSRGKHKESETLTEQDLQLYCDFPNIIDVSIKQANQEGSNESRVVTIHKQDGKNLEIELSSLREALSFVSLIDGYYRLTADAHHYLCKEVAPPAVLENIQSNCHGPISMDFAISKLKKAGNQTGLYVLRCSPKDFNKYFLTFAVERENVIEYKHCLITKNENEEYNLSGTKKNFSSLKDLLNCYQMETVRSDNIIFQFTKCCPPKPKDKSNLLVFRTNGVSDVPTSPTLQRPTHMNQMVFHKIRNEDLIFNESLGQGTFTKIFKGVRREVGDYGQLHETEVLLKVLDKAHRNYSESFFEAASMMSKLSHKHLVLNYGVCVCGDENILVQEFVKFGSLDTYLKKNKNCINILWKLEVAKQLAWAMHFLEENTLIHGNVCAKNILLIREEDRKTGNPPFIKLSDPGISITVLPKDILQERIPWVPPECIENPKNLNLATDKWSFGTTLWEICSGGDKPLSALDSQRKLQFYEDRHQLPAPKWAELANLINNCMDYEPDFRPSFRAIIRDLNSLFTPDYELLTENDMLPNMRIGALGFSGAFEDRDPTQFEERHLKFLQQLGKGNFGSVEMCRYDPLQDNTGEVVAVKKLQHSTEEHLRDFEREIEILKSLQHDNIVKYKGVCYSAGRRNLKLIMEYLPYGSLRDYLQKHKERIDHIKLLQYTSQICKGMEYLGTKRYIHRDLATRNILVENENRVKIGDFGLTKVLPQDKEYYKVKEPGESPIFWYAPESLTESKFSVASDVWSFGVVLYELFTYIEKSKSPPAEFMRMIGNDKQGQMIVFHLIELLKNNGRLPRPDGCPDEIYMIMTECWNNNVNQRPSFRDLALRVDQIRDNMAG

[7] = Plasma clearance in cynomolgus monkey at 5 mg/kg, iv; type: ADME, organism-based, Macaca fascicularis; set-up: dose 5 mg/kg, route intravenous
[8] = biological target: High affinity nerve growth factor receptor (Homo sapiens, UniProt P04629); test: Inhibition of TEL-fused TRKA (unknown origin) by cell-based assay
[9] = AUC in Beagle dog at 5 mg/kg, iv; type: ADME, organism-based, Canis lupus familiaris; set-up: dose 5 mg/kg, route intravenous; settings: plasma
[10] = Volume of distribution at steady state in BALB/c mouse at 5 mg/kg, iv; type: ADME, organism-based; set-up: dose 5 mg/kg, route intravenous; settings: in vivo, read-out: Vdss
[11] = biological target: MAP kinase-interacting serine/threonine-protein kinase 2 (Homo sapiens, UniProt Q9HBH9); test: Inhibition of MKNK2 (unknown origin) after 60 mins
MAP kinase-interacting serine/threonine-protein kinase 2, sequence (Q9HBH9 whole entry): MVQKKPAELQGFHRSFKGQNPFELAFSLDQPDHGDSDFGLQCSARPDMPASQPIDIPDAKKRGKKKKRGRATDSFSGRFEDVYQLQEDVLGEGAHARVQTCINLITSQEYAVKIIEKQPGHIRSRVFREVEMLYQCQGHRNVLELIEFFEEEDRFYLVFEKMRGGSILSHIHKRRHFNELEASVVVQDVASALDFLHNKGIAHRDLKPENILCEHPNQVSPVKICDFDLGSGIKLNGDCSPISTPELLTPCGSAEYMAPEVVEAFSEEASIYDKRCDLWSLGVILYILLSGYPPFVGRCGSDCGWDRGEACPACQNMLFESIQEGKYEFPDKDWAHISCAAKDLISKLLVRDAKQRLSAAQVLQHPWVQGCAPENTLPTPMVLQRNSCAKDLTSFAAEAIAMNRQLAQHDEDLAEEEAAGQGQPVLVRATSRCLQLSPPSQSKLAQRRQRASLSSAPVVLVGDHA

[12] = Solubility of the compound […] at pH 6.8; type: physicochemical
[13] = biological target: Mast/stem cell growth factor receptor Kit (Homo sapiens, UniProt P10721); test: Inhibition of TEL-fused cKIT (unknown origin) by cell-based assay
[14] = biological target: T1, Tyrosine-protein kinase JAK2; test: Inhibition of JAK2 (unknown origin) after 60 mins
Target sequence in this assay (O60674 whole entry, the tested form may be a part): as the sequence (O60674 whole entry, looked up, the tested form may be a part) above

[15] = biological target: Fibroblast growth factor receptor 2 (Homo sapiens, UniProt P21802); test: Inhibition of FGFR2 (unknown origin) after 60 mins
Fibroblast growth factor receptor 2, sequence (P21802 whole entry): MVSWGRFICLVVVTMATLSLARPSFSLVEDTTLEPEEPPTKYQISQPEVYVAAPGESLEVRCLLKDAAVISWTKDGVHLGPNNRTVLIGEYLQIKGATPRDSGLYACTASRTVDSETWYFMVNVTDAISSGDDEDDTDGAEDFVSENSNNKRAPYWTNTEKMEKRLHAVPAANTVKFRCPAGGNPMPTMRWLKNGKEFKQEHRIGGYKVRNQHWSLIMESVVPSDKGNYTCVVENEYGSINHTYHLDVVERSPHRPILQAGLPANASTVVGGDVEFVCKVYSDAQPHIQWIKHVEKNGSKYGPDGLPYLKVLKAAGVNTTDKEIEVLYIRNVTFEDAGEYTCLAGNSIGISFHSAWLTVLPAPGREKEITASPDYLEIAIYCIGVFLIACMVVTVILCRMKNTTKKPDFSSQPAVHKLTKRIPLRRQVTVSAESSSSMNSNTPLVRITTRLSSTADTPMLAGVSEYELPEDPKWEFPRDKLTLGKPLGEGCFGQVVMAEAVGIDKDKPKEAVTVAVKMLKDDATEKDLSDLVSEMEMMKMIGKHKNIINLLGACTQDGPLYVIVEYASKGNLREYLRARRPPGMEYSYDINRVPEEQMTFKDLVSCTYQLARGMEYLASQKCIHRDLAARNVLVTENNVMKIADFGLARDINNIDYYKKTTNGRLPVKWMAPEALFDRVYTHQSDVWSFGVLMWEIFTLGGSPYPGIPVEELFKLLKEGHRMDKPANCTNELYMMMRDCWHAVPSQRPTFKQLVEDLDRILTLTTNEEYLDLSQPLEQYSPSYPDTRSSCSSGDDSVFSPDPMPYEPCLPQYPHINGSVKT

[16] = Intrinsic clearance in rat liver microsomes; type: ADME, Microsome; settings: read-out: CLH
[17] = biological target: Receptor-type tyrosine-protein kinase FLT3 (Homo sapiens, UniProt P36888); test: Inhibition of TEL-fused FLT3 (unknown origin) by cell-based assay
[18] = biological target: Fibroblast growth factor receptor 3 (Homo sapiens, UniProt P22607); test: Inhibition of FGFR3 (unknown origin) after 60 mins
[19] = biological target: Fibroblast growth factor receptor 4 (Homo sapiens, UniProt P22455); test: Inhibition of FGFR4 (unknown origin) after 60 mins
[20] = Cmax in cynomolgus monkey at 60 mg/kg, po; type: ADME, organism-based, Macaca fascicularis; set-up: dose 60 mg/kg, route oral; settings: in vivo
[21] = Cmax in cynomolgus monkey at 5 mg/kg, iv; type: ADME, organism-based, Macaca fascicularis; set-up: dose 5 mg/kg, route intravenous; settings: in vivo
[22] = Tmax in cynomolgus monkey at 60 mg/kg, po; type: ADME, organism-based, Macaca fascicularis; set-up: dose 60 mg/kg, route oral; settings: in vivo
[23] = Volume of distribution at steady state in Sprague-Dawley rat at 3 mg/kg, iv; type: ADME, organism-based; set-up: dose 3 mg/kg, route intravenous; settings: in vivo, read-out: Vdss
[24] = Inhibition of AKT (unknown origin) after 60 mins; set-up: species or system Homo sapiens
[25] = Tmax in BALB/c mouse at 20 mg/kg, po; type: ADME, organism-based; set-up: dose 20 mg/kg, route oral; settings: in vivo
Rattus norvegicus = test: Toxicity in po dosed Rowett nude rat xenografted with human NCI-H2228 cells assessed as body weight loss at 5 to 25 mg/kg, po; type: organism-based; set-up: dose 5-25 mg/kg, route oral; settings: in vivo
[26] = biological target: Tyrosine-protein kinase BTK (Homo sapiens, UniProt Q06187); test: Inhibition of BTK (unknown origin) after 60 mins
Tyrosine-protein kinase BTK, sequence (Q06187 whole entry): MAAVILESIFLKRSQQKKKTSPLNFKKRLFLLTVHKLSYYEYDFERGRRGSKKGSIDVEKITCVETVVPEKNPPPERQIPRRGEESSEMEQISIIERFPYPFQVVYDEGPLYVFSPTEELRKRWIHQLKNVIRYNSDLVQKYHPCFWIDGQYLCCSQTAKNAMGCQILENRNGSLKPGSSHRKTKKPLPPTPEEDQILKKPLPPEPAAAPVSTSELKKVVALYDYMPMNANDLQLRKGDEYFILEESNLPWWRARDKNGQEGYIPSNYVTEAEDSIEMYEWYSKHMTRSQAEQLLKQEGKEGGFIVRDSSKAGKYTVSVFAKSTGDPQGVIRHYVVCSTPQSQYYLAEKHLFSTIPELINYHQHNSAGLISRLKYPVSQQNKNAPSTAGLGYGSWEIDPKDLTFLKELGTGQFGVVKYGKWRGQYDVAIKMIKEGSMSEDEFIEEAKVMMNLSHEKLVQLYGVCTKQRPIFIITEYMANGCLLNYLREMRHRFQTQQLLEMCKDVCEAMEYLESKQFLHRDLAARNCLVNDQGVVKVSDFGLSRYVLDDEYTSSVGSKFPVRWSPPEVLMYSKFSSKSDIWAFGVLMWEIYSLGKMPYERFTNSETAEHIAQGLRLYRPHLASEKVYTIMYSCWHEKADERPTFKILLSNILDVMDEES

NCI-H2228 [27] = test: Antitumor activity against human NCI-H2228 cells xenografted in Rowett nude rat assessed as tumor growth inhibition factor at 5 mg/kg, po for 14 days measured 7 to 72 hrs post dosing relative to control; type: functional
NCI-H2228 [28] = test: Antitumor activity against human NCI-H2228 cells xenografted in Rowett nude rat assessed as tumor growth inhibition factor at 10 mg/kg, po for 14 days measured 7 to 72 hrs post dosing relative to control; type: functional
[29] = AUC in Beagle dog at 20 mg/kg, po; type: ADME, organism-based, Canis lupus familiaris; set-up: dose 20 mg/kg, route oral; settings: plasma
[30] = Cmax in Beagle dog at 5 mg/kg, iv; type: ADME, organism-based, Canis lupus familiaris; set-up: dose 5 mg/kg, route intravenous; settings: in vivo
KARPAS-299 [31] = test: Antitumor activity against human KARPAS299 cells xenografted in Rowett nude rat assessed as tumor regression at 25 mg/kg, po for 14 days measured 7 to 72 hrs post dosing relative to control; type: functional
[32] = Half life in Sprague-Dawley rat at 3 mg/kg, iv; type: ADME, organism-based; set-up: dose 3 mg/kg, route intravenous; settings: in vivo
KARPAS-299 [33] = test: Antitumor activity against human KARPAS299 cells xenografted in Rowett nude rat assessed as tumor growth inhibition factor at 6.25 mg/kg, po for 14 days measured 7 to 72 hrs post dosing relative to control; type: functional
[34] = biological target: T2, Hepatocyte growth factor receptor (Homo sapiens, UniProt P08581); test: Inhibition of TEL-fused MET (unknown origin) by cell-based assay
Target sequence in this assay (P08581 25-1390 limits assumed): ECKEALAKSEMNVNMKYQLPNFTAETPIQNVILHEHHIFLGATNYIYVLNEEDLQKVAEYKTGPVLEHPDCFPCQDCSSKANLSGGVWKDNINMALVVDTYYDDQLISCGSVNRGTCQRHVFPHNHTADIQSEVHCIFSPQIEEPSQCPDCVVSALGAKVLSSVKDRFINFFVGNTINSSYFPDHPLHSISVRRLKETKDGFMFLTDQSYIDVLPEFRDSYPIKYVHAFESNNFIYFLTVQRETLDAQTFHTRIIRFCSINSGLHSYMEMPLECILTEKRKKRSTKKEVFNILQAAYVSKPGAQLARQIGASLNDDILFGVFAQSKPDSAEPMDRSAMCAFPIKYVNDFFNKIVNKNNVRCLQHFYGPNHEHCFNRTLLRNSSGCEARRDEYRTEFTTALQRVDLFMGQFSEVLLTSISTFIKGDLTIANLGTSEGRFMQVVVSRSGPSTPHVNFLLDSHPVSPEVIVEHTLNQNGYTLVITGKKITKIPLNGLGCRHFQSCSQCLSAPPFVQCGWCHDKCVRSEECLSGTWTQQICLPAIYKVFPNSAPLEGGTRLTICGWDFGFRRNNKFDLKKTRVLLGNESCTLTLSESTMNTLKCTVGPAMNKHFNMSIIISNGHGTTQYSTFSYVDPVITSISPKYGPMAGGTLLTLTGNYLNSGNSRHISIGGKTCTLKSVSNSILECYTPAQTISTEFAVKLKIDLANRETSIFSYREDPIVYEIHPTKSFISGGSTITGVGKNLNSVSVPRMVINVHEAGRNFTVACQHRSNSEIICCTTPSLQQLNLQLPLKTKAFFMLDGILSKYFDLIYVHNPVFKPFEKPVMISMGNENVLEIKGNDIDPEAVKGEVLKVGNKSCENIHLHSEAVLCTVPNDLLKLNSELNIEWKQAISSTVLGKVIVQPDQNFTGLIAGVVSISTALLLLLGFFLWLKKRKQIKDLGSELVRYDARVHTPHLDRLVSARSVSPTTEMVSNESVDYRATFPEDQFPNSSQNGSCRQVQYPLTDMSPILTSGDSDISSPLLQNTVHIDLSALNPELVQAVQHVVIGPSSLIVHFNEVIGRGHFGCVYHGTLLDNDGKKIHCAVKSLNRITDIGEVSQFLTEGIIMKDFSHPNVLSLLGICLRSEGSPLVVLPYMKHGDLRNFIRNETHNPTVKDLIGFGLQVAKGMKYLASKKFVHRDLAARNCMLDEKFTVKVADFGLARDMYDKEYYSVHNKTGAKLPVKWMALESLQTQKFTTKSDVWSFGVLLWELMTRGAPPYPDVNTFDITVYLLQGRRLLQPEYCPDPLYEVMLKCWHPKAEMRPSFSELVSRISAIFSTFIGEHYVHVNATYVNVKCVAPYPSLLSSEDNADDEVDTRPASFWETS

[35] = AUC in cynomolgus monkey at 60 mg/kg, po; type: ADME, organism-based, Macaca fascicularis; set-up: dose 60 mg/kg, route oral; settings: plasma
[36] = biological target: Glycogen synthase kinase-3 beta (Homo sapiens, UniProt P49841); test: Inhibition of GSK3beta (unknown origin) after 60 mins
Rhesus monkey = test: Cardiotoxicity in monkey assessed as QTc prolongation; type: toxicity, organism-based, Macaca mulatta; settings: in vivo
[37] = Oral bioavailability in BALB/c mouse at 20 mg/kg; type: ADME, organism-based; settings: in vivo
KARPAS-299 [38] = test: Antitumor activity against human KARPAS299 cells xenografted in Rowett nude rat assessed as tumor regression at 50 mg/kg, po for 14 days measured 7 to 72 hrs post dosing relative to control; type: functional
[39] = Cmax in Beagle dog at 20 mg/kg, po; type: ADME, organism-based, Canis lupus familiaris; set-up: dose 20 mg/kg, route oral; settings: in vivo
[40] = Plasma clearance in Beagle dog at 5 mg/kg, iv; type: ADME, organism-based, Canis lupus familiaris; set-up: dose 5 mg/kg, route intravenous
[41] = Toxicity in po dosed Rowett nude rat xenografted with human KARPAS299 cells; type: organism-based, KARPAS-299; settings: in vivo
[42] = biological target: T3, Tyrosine-protein kinase Lck (Homo sapiens, UniProt P06239); test: Inhibition of TEL-fused LCK (unknown origin) by cell-based assay
T3 sequence (P06239 whole entry, the tested form may be a part): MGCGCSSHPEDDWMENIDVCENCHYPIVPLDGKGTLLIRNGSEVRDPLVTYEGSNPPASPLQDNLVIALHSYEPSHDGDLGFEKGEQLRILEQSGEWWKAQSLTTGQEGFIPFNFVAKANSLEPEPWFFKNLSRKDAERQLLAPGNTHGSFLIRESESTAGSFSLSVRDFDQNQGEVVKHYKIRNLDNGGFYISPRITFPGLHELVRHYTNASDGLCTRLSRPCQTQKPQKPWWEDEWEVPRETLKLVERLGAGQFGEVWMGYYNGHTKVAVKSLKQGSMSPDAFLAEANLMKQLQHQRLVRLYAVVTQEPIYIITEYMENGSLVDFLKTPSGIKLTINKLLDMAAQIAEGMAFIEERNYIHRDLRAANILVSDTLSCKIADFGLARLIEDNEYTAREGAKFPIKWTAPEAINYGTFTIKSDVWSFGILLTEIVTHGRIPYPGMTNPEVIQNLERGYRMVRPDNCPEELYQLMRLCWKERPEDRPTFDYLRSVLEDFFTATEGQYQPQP

[43] = biological target: Tyrosine-protein kinase Fgr (Homo sapiens, UniProt P09769); test: Inhibition of TEL-fused FGR (unknown origin) by cell-based assay
[44] = biological target: Transcription factor ETV6 (Homo sapiens, UniProt P41212); test: Inhibition of wild-type TEL (unknown origin) by cell-based assay
[45] = biological target: T3, Tyrosine-protein kinase Lck; test: Inhibition of LCK (unknown origin) after 60 mins
[46] = biological target: Tyrosine-protein kinase JAK1 (Homo sapiens, UniProt P23458); test: Inhibition of JAK1 (unknown origin) after 60 mins
[47] = Plasma clearance in BALB/c mouse at 5 mg/kg, iv; type: ADME, organism-based; set-up: dose 5 mg/kg, route intravenous
[48] = biological target: Proto-oncogene tyrosine-protein kinase Src (Homo sapiens, UniProt P12931); test: Inhibition of TEL-fused SRC (unknown origin) by cell-based assay
BaF3 = test: cells; settings: Mus musculus
[49] = Tmax in Beagle dog at 20 mg/kg, po; type: ADME, organism-based, Canis lupus familiaris; set-up: dose 20 mg/kg, route oral; settings: in vivo
[50] = biological target: Tyrosine-protein kinase Lyn (Homo sapiens, UniProt P07948); test: Inhibition of TEL-fused LYN (unknown origin) by cell-based assay
[51] = biological target: T2, Hepatocyte growth factor receptor
Description: Inhibition of cMET (unknown origin) after 60 mins

Structure (SMILES): Cc1cc(Nc2ncc(Cl)c(Nc3ccccc3S(=O)(=O)C(C)C)n2)c(OC(C)C)cc1C1CCNCC1 [CERITINIB]
- bioavailability [1]: 119%
- IC50 [2]: 7920 nM
- Cmax [3]: 696 nM
- Drug uptake [4]: Active
- clearance [5]: 36.8 mL/min/kg
- IC50 [6]: 2160 nM
- clearance [7]: 12.8 mL/min/kg
- IC50 [8]: 2730 nM
- AUC [9]: 18.1 µM·h
- Vd [10]: 9.7 L/kg
- IC50 [11]: 2240 nM
- solubility [12]: 24 µM (≈ 13.4 µg/mL)
- IC50 [13]: 2860 nM
- IC50 [14]: 610 nM
- IC50 [15]: 260 nM
- microsomal CLint [16]: 10 µL/min/mg
- IC50 [17]: 3140 nM
- IC50 [18]: 430 nM
- IC50 [19]: 950 nM
- Cmax [20]: 1700 nM
- Cmax [21]: 2530 nM
- Tmax [22]: 13 h
- Vd [23]: 21.2 L/kg
- IC50 [24]: > 10000 nM
- Tmax [25]: 7 h
- Activity (Rattus norvegicus): Non-toxic
- IC50 [26]: 3360 nM
- T/C (NCI-H2228 [27]): 67%
- T/C (NCI-H2228 [28]): 2%
- AUC [29]: 67.9 µM·h
- Cmax [30]: 2330 nM
- T/C (KARPAS-299 [31]): -33%
- half-life [32]: 9.1 h
- T/C (KARPAS-299 [33]): 74%
- IC50 [34]: 1340 nM
- AUC [35]: 76.3 µM·h
- IC50 [36]: > 10000 nM
- Activity (Rhesus monkey): Non-toxic
- bioavailability [37]: 55%
- T/C (KARPAS-299 [38]): -66%
- Cmax [39]: 1900 nM
- clearance [40]: 9.2 mL/min/kg
- MTD [41]: 6.25 mg/kg
- IC50 [42]: 672 nM
- IC50 [43]: 1950 nM
- IC50 [44]: 3250 nM
- IC50 [45]: 560 nM
- IC50 [46]: 3730 nM
- clearance [47]: 26.6 mL/min/kg
- IC50 [48]: 1690 nM
- IC50 (BaF3): 2480 nM
- Tmax [49]: 8 h
- IC50 [50]: 2310 nM
- IC50 [51]: 3170 nM
